How the values were obtained:
clinical = assay type: in vivo, human
Protocol: (§1) 20 Coronary Heart Disease (CHD) patients who were positive for anti-Chlamydia IgG and hypercholesterolaemia were identified. These patients were randomised in 4 groups of 5 patients, and each of them received daily either in: • 1st group—7 mg of lycopene supplement (in 70 mg of tomato oleoresin), or • 2nd group—[…] of WP, or • 3rd group—mechanical mixture of 7 mg of lycopene (in 70 mg of tomato oleoresin), and 70 mg of WP, or • 4th group—WP-Lycosome comprising of 7 mg of lycopene (in 70 mg of tomato oleoresin) and 70 mg of WP.

Chlamydia pneumoniae = assay: Clinical trial in CHD patients: serum anti-Chlamydia IgG (IgG-ELISA); assay type: in vivo, human; conditions: for Chlamydia pneumoniae load in IgG-ELISA, ELISA reading: below 0.300-0.400 is considered negative
Protocol: as §1
(§2) Serum anti-Chlamydia IgG and total serum cholesterol were measured after 4 weeks.

[1] = Clinical trial in CHD patients: total serum cholesterol; assay type: in vivo, human
Protocol: as §1, §2

[2] = Pharmacokinetic study on volunteers: unmodified trans-resveratrol in blood; assay type: in vivo; conditions: human, serum, po, 100 mg, 100 mg trans-Resveratol oral, individual volunteers ID 1, 2, read-out: AUC for 24 hours
Protocol: The group of 5 volunteers comprised of 2 female and 3 male clinically healthy Caucasian persons, age between 23 and 35 years. They were asked, before commencing this experiment, to go for 3-4 days “wash-out”, when consumption of any grape, wine, peanut, chocolate and other products which might contain them.
Blood samples were taken from their median cubital or cephalic veins at the baseline point. […]
After taking blood its serum was separated, aliquoted and stored at −80° C. for further testing.

[3] = difference after 4 weeks of administration

Row | Structure (SMILES) | Total serum Lycopene, Δ (clinical; [3]) | concentration at 0 w (clinical; human, in vivo) [ng/mL] | concentration at 4 w (clinical; human, in vivo) [ng/mL] | number of sero-positive patients (Chlamydia pneumoniae; 0 w) | Chlamydia pneumoniae load in IgG-ELISA, ELISA reading (Chlamydia pneumoniae; 0 w, CHD patients) | number of sero-positive patients (Chlamydia pneumoniae; 1 w) | number of sero-positive patients (Chlamydia pneumoniae; 2 w) | number of sero-positive patients (Chlamydia pneumoniae; 3 w) | time by which all patients were sero-negative / anti-Chlamydia IgG cleared from serum (Chlamydia pneumoniae; 4-week trial) | number of sero-positive patients (Chlamydia pneumoniae; 4 w) | Chlamydia pneumoniae load in IgG-ELISA, ELISA reading (Chlamydia pneumoniae; 4 w of daily administration) | effect on level of Chlamydia infection (specific IgG), in words (Chlamydia pneumoniae; CHD patients, daily for 4 weeks) | Total serum Cholesterol ([1]; 0 w) [mmol/L] | Total serum Cholesterol ([1]; 4 w) [mmol/L] | reduction of serum cholesterol ([1]; after 4 weeks) [mmol/L] | Total serum Cholesterol, Δ [1, 3] [mmol/L] | AUC [2] [ng·h/mL]
1 | CC(C)=CCC/C(C)=C/C=C/C(C)=C/C=C/C(C)=C/C=C/C=C(C)/C=C/C=C(C)/C=C/C=C(\C)CCC=C(C)C [GA Lycopene, lycopene] | +116 ng/ml | 179 ± 21 | 295 ± 23 | 10 | 0.997 ± 0.098 | (10) | (4) | (2) | in the last week of the trial | 0 | 0.288 ± 0.043 | some ability to reduce Chlamydia infection | 5.4 ± 0.23 | 4.7 ± 0.21 | 0.7 | -0.7 | –
2 | Oc1ccc(/C=C/c2cc(O)cc(O)c2)cc1 [Resveratrol, 3,5,4′-trihydroxy-trans-stilbene] | – | – | – | – | – | – | – | – | – | – | – | – | – | – | – | – | 432

From patent US9737602B2, “Carotenoid particles and uses thereof” (IP SCIENCE LIMITED, priority 2011, dated 2017)
